Experimental data as given in US12059420B2 (BRISTOL-MYERS SQUIBB COMPANY, priority 2018, dated 2024).

Biological target: T1, human IDO1 (Homo sapiens, UniProt P14902)
T1 construct: expressed in transfected cells
Assay: IDO inhibition assay in HEK293 cells stably expressing human IDO1 (kynurenine production, Ehrlich reagent, absorbance 490 nm)
Format: cell-based
Settings: 20 hours incubation with compound, 500 nM reference standard = 100% inhibition, read-out: IDO1 HEK Human IC50
Description: HEK293 cells were transfected with a pCDNA-based mammalian expression vector harboring human IDO1 cDNA (NM 002164.2) by electroporation. They were cultured in medium (DMEM with 10% FBS) containing 1 mg/ml G418 for two weeks. Clones of HEK293 cells that stably expressed human IDO1 protein were selected and expanded for IDO inhibition assay.
The human IDO1/HEK293 cells were seeded at 10,000 cells per 50 μL per well with RPMI/phenol red free media contains 10% FBS in a 384-well black wall clear bottom tissue culture plate (Matrix Technologies LLC) 100 nL of certain concentration of compound was then added to each well using ECHO liquid handling systems. The cells were incubated for 20 hours in 37° C. incubator with 5% CO2.
The compound treatments were stopped by adding trichloroacetic acid (Sigma-Aldrich) to a final concentration at 0.2%. The cell plate was further incubated at 50° C. for 30 minute. The equal volume supernatant (20 μL) and 0.2% (w/v) Ehrlich reagent (4-dimethylaminobenzaldehyde, Sigma-Aldrich) in glacial acetic acid were mixed in a new clear bottom 384-well plate. This plate was then incubated at RT for 30 minute. The absorbance at 490 nm was measured on Envision plate reader.
Compound IC50 values were calculated using the counts of 500 nM of a reference standard treatment as one hundred percent inhibition, and counts of no compound but DMSO treatment as zero percent inhibition.

T1 sequence (P14902 whole entry): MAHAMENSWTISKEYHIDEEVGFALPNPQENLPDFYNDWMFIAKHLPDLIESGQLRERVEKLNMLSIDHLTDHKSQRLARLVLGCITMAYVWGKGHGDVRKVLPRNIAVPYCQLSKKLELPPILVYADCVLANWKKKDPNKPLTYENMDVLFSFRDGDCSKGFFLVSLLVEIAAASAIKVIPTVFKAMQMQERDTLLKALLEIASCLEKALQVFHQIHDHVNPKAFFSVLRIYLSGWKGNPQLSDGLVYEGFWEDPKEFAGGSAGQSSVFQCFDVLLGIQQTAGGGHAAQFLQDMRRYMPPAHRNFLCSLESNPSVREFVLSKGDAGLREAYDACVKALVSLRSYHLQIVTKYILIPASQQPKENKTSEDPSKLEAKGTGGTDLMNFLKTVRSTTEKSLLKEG

“1-(2-(2-(1H-tetrazol-5-yl)phenyl)-6- (benzyl(propyl)amino)pyridin-4-yl)-3-(4- ethoxyphenyl)urea [Example 272]” was tested. Which IC50 did it give?
The IC50 was 129 nM.

How did the IC50 turn out when “6-(2-(1H-tetrazol-5-yl)phenyl)-N2- benzyl-N4-(2-fluoropyridin-3-yl)- N2-isobutylpyridine-2,4-diamine, TFA [Example 54]” was run?
The IC50 was 24.8 nM.

Which IC50 does the source give for `CCC(CC(=O)O)c1cc(Nc2ccc(Cl)cc2)cc(N(Cc2ccccc2)CC(C)C)n1` (racemic) [Example 245, 3-(6-(benzyl(isobutyl)amino)-4-((4-chlorophenyl)amino)pyridin-2-yl)pentanoic acid] here?
Its IC50 is 47.5 nM.

With `CCC(CC(=O)O)c1cc(Nc2ccc(Cl)cc2)cc(N(Cc2ccc(F)cc2)C(C)C)n1` (racemic) [Example 246, 3-(4-((4-chlorophenyl)amino)-6-((4-fluorobenzyl)(isopropyl)amino)pyridin-2-yl)pentanoic acid] as the compound, how does the IC50 read?
Its IC50 is 4.7 nM.

How did the IC50 turn out when `CCC(CC(=O)O)c1cc(Nc2ccc3nc(C)sc3c2)cc(N(Cc2ccccc2)CC(C)C)n1` (single isomer, unassigned) [Example 243, 3-(6-(benzyl(isobutyl)amino)-4-((2-methylbenzo [d]thiazol-6-yl)amino)pyridin-2-yl)pentanoic acid] was run?
Its IC50 is 1610 nM.

For `CCC(CC(=O)O)c1cc(NC(=O)Nc2ccc(C)cc2)cc(N(Cc2ccccc2)CC(C)C)n1` (single isomer, unassigned) [Example 244, 3-(6-(benzyl(isobutyl)amino)-4-(3-(p-tolyl)ureido)pyridin-2-yl)pentanoic acid], which IC50 is on record?
Its IC50 is 109 nM.

How did the IC50 turn out when `CCC(CC(=O)O)c1cc(Nc2ccc3nc(C)sc3c2)cc(N(Cc2ccc(F)cc2)C(C)C)n1` (single isomer, unassigned) [Example 247, 3-(6-((4-fluorobenzyl)(isopropyl)amino)-4-((2-methylbenzo [d]thiazol-6-yl)amino)pyridin-2-yl)pentanoic acid] was run?
The IC50 was 11.1 nM.

How did the IC50 turn out when `CCC(CC(=O)O)c1cc(Nc2ccc(Cl)cc2)cc(N(Cc2ccc(F)cc2)CC(C)C)n1` (single isomer, unassigned) [Example 248, 3-(4-((4-chlorophenyl)amino)-6-((4-fluorobenzyl)(isobutyl)amino)pyridin-2-yl)pentanoic acid] was run?
Its IC50 is 217 nM.

How did the IC50 turn out when `CCC(CC(=O)O)c1cc(Nc2ccc3nc(C)sc3c2)cc(N(Cc2ccc(F)cc2)CC(C)C)n1` (single isomer, unassigned) [Example 249, 3-(6-((4-fluorobenzyl)(isobutyl)amino)-4-((2-methylbenzo [d]thiazol-6-yl)amino)pyridin-2-yl)pentanoic acid] was run?
Its IC50 is 934 nM.

How did the IC50 turn out when `CCC(CC(=O)O)c1cc(NC(=O)Nc2ccc(C)cc2)cc(N(Cc2ccc(F)cc2)CC(C)C)n1` (single isomer, unassigned) [Example 250, 3-(6-((4-fluorobenzyl)(isobutyl)amino)-4-(3-(p-tolyl)ureido)pyridin-2-yl)pentanoic acid] was run?
The IC50 was 156 nM.

With `CCN(Cc1ccccc1)c1cc(NC(=O)Cc2ccc(C)cc2)cc(-c2ccccc2-c2nnn[nH]2)n1` [Example 1, N-(2-(2-(1H-tetrazol-5-yl)phenyl)-6-(benzyl(ethyl)amino)pyridin-4-yl)-2-(p-tolyl)acetamide] as the compound, how does the IC50 read?
Its IC50 is 45.4 nM.

`Cc1ccc(NC(=O)Nc2cc(-c3ccccc3-c3nnn[nH]3)nc(N(CC(C)C)C3CCCCC3)n2)cc1` [Example 2, 1-(6-(2-(1H-tetrazol-5-yl)phenyl)-2-(cyclohexyl(isobutyl)amino)pyrimidin-4-yl)-3-(p-tolyl)urea] was tested. Which IC50 did it give?
The IC50 was 1040 nM.

How did the IC50 turn out when `Cc1ccc(CC(=O)Nc2cc(-c3ccccc3-c3nnn[nH]3)nc(N(CC(C)C)C3CCCCC3)n2)cc1` [Example 3, N-(6-(2-(1H-tetrazol-5-yl)phenyl)-2-(cyclohexyl(isobutyl)amino)pyrimidin-4-yl)-2-(p-tolyl)acetamide] was run?
Its IC50 is 26.3 nM.

With `CCN(Cc1ccccc1)c1nc(NC(=O)Nc2ccc(C)cc2)cc(-c2ccccc2-c2nnn[nH]2)n1` [Example 4, 1-(6-(2-(1H-tetrazol-5-yl)phenyl)-2-(benzyl(ethyl)amino)pyrimidin-4-yl)-3-(p-tolyl)urea] as the compound, how does the IC50 read?
The IC50 was 952 nM.

How did the IC50 turn out when `CCN(Cc1ccccc1)c1nc(NC(=O)Cc2ccc(C)cc2)cc(-c2ccccc2-c2nnn[nH]2)n1` [Example 7, N-(6-(2-(1H-tetrazol-5-yl)phenyl)-2-(benzyl(ethyl)amino)pyrimidin-4-yl)-2-(p-tolyl)acetamide] was run?
The IC50 was 89 nM.

For `Cc1ccc(CC(=O)Nc2cc(-c3ccccc3-c3nnn[nH]3)nc(N(Cc3ccccc3)CC(C)C)n2)cc1` [Example 8, N-(6-(2-(1H-tetrazol-5-yl)phenyl)-2-(benzyl(isobutyl)amino)pyrimidin-4-yl)-2-(p-tolyl)acetamide], which IC50 is on record?
Its IC50 is 8.5 nM.

With `Cc1ccc(C(=O)Nc2cc(-c3ccccc3-c3nnn[nH]3)nc(N(Cc3ccccc3)CC(C)C)n2)c(F)c1` [Example 9, N-(6-(2-(1H-tetrazol-5-yl)phenyl)-2-(benzyl(isobutyl)amino)pyrimidin-4-yl)-2-fluoro-4-methylbenzamide] as the compound, how does the IC50 read?
The IC50 was 74 nM.

Which IC50 does the source give for `Cc1ccc(NC(=O)Nc2cc(-c3ccccc3-c3nnn[nH]3)nc(N(Cc3ccccc3)CC(C)C)n2)cc1` [Example 10, 1-(6-(2-(1H-tetrazol-5-yl)phenyl)-2-(benzyl(isobutyl)amino)pyrimidin-4-yl)-3-(p-tolyl)urea] here?
The IC50 was 404 nM.

Which IC50 does the source give for `Cc1ccc(CC(=O)Nc2cc(-c3ccccc3-c3nnn[nH]3)nc(N(Cc3ccccc3)CC(C)C)n2)c(F)c1` [Example 11, N-(6-(2-(1H-tetrazol-5-yl)phenyl)-2-(benzyl(isobutyl)amino)pyrimidin-4-yl)-2-(2-fluoro-4-methylphenyl)acetamide] here?
The IC50 was 18.1 nM.

How did the IC50 turn out when `CCCN(Cc1ccccc1)c1cc(NC(=O)Nc2ccc(Cl)cc2F)cc(-c2ccccc2-c2noc(=O)[nH]2)n1` [Example 12, 1-(2-(benzyl(propyl)amino)-6-(2-(5-oxo-4,5-dihydro-1,2,4-oxadiazol-3-yl)phenyl)pyridin-4-yl)-3-(4-chloro-2-fluorophenyl)urea] was run?
Its IC50 is 7 nM.

Which IC50 does the source give for `CCCN(Cc1ccc(F)cc1)c1cc(NC(=O)Nc2ccc(Cl)cc2F)cc(-c2ccccc2-c2noc(=O)[nH]2)n1` [Example 13, 1-(4-chloro-2-fluorophenyl)-3-(2-((4-fluorobenzyl)(propyl)amino)-6-(2-(5-oxo-4,5-dihydro-1,2,4-oxadiazol-3-yl)phenyl)pyridin-4-yl)urea] here?
Its IC50 is 13.2 nM.

How did the IC50 turn out when `CCCN(Cc1ccccc1)c1cc(NC(=O)Nc2ccc(C)cc2)cc(-c2ccccc2-c2nsc(=O)[nH]2)n1` [Example 14, 1-(2-(benzyl(propyl)amino)-6-(2-(5-oxo-4,5-dihydro-1,2,4-thiadiazol-3-yl)phenyl)pyridin-4-yl)-3-(p-tolyl)urea] was run?
The IC50 was 181 nM.

How did the IC50 turn out when `CCCN(Cc1ccccc1)c1cc(NC(=O)Cc2ccc(C)cc2)cc(-c2ccccc2C(=O)O)n1` [Example 17, 2-(6-(benzyl(propyl)amino)-4-(2-(p-tolyl)acetamido)pyridin-2-yl)benzoic acid] was run?
The IC50 was 161 nM.

Which IC50 does the source give for `CCCN(Cc1ccccc1)c1cc(NC(=O)Nc2ccc(C)cc2)cc(-c2ccccc2C(=O)NS(=O)(=O)N2CCN(C)CC2)n1` [Example 18, 2-(6-(benzyl(propyl)amino)-4-(3-(p-tolyl)ureido)pyridin-2-yl)-N-((4-methylpiperazin-1-yl)sulfonyl)benzamide] here?
The IC50 was 2430 nM.

For `CCCN(Cc1ccccc1)c1cc(NC(=O)Cc2ccc(C)cc2)cc(-c2ccccc2C(=O)NS(=O)(=O)C2CC2)n1` [Example 19, 2-(6-(benzyl(propyl)amino)-4-(2-(p-tolyl)acetamido)pyridin-2-yl)-N-(cyclopropylsulfonyl)benzamide], which IC50 is on record?
Its IC50 is 485 nM.

Which IC50 does the source give for `CCCN(Cc1ccccc1)c1cc(NC(=O)Nc2ccc(C)cc2)cc(-c2ccccc2C(=O)NS(=O)(=O)C2CC2)n1` [Example 20, 2-(6-(benzyl(propyl)amino)-4-(3-(p-tolyl)ureido)pyridin-2-yl)-N-(cyclopropylsulfonyl)benzamide] here?
The IC50 was 594 nM.

For `CCCN(Cc1ccccc1)c1cc(NC(=O)Cc2ccc(C)cc2)cc(-c2ccccc2C(=O)NS(C)(=O)=O)n1` [Example 21, 2-(6-(benzyl(propyl)amino)-4-(2-(p-tolyl)acetamido)pyridin-2-yl)-N-(methylsulfonyl)benzamide], which IC50 is on record?
Its IC50 is 328 nM.

`Cc1ccc(CC(=O)Nc2cc(-c3ccccc3-c3nnn[nH]3)nc(N(Cc3ccccc3)CC3CC3)n2)cc1` [Example 22, N-(6-(2-(1H-tetrazol-5-yl)phenyl)-2-(benzyl(cyclopropylmethyl)amino)pyrimidin-4-yl)-2-(p-tolyl)acetamide] was tested. Which IC50 did it give?
Its IC50 is 32.4 nM.

Which IC50 does the source give for `CCCN(Cc1ccccc1)c1nc(NC(=O)Cc2ccc(C)cc2)cc(-c2ccccc2-c2nnn[nH]2)n1` [Example 23, N-(6-(2-(1H-tetrazol-5-yl)phenyl)-2-(benzyl(propyl)amino)pyrimidin-4-yl)-2-(p-tolyl)acetamide] here?
The IC50 was 16.2 nM.

Which IC50 does the source give for `CCCN(Cc1ccccc1)c1cc(NC(=O)Nc2ccc(C)cc2)cc(-c2ccccc2C(=O)NS(C)(=O)=O)n1` [Example 24, 2-(6-(benzyl(propyl)amino)-4-(3-(p-tolyl)ureido)pyridin-2-yl)-N-(methylsulfonyl)benzamide] here?
Its IC50 is 256 nM.

`CCCN(Cc1ccccc1)c1cc(NC(=O)Cc2ccc(C)cc2)cc(-c2ccccc2C(=O)NS(=O)(=O)N2CCN(C)CC2)n1` [Example 25, 2-(6-(benzyl(propyl)amino)-4-(2-(p-tolyl)acetamido)pyridin-2-yl)-N-((4-methylpiperazin-1-yl)sulfonyl)benzamide] was tested. Which IC50 did it give?
The IC50 was 2910 nM.
